# Measured values reported in paper PMC6166404 (Journal of medicinal chemistry, 2018).
# pKi: −log10 of the molar value. Where two headings read alike, the source gives them in different places.
# How the values were obtained:
# [1] = system: H37Rv; format: cell-based; settings: addition of ATc
# [2] = system: Mtb H37Rv (ATCC 27294); settings: 7H9/ADC/Tween medium, no guanine, 1 week; cited from earlier work
# [3] = system: Mtb H37Rv (ATCC 27294); format: cell-based; settings: for effect of guanine on MIC: presence of guanine (200 μM); for antibacterial activity over two weeks: two weeks in culture
# [4] = system: HepG2 cells; settings: 24 h; for cytotoxicity (in words) / LD50: LDH release; for cytotoxicity (in words): up to 25 μM; for cytotoxicity, lactate dehydrogenase release: 25 μM, range stated for the three compounds together
# [5] = target: T1, human GMPR2 (Homo sapiens, UniProt Q9P2T1); assay: biochemical
# T1 sequence (Q9P2T1 1-348): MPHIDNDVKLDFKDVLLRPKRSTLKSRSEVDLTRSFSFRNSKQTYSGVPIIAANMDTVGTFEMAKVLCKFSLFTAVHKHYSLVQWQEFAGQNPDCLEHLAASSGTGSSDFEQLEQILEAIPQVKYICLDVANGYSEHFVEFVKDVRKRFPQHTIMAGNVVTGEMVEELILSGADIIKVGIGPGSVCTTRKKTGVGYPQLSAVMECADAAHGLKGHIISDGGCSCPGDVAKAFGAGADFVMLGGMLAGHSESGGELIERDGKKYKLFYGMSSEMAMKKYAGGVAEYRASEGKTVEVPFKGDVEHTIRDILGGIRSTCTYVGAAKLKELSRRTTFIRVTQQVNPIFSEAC
# [6] = 2 h
# [7] = system: Hela cells; settings: 25 μM, LDH release
# [8] = system: MCF7 cells; settings: 25 μM, LDH release
# [9] = system: HEK293T cells; settings: 25 μM, LDH release
# [10] = target: human IMPDH2 (Homo sapiens, UniProt P12268); assay: biochemical
compound,measurement,setting,value
"COc1ccc(OC(C)C(=O)Nc2ccc3oc(-c4ccncc4)nc3c2)cc1 (stereo not shown) [Compound 1, reference compound]",effect of ATc on antibacterial activity against the wild-type strain,[1],not affected
same,7H9/ADC/Tween MIC −Gua,[2],10 ± 2 (3) μM
"COc1ccc(-c2nc3cc(NC(=O)[C@H](C)Oc4cccc(Cl)c4Cl)ccc3o2)cn1 [Compound 8c, (S)-2-(2,3-dichlorophenoxy)-N-(2-(6-methoxypyridin-3-yl)benzo[d]oxazol-5-yl)propanamide]",effect of guanine on MIC,[3],increased in the presence of guanine in 7H9/ADC/Tween medium but not in GAST/Fe
"C[C@H](Oc1cccc(F)c1F)C(=O)Nc1ccc2oc(-c3ccncc3)nc2c1 [Compound 8l, (S)-2-(2,3-Difluorophenoxy)-N-(2-(pyridin-4-yl)benzo[d]oxazol-5-yl)propanamide]",cytotoxicity (in words),[4],"Only compounds 8p, 8u and 17b displayed measurable cytotoxicity"
same,antibacterial activity over two weeks,[3]; Mtb H37Rv,retained antibacterial activity
"C[C@H](Oc1cccc(F)c1F)C(=O)Nc1ccc2oc(-c3ccc(O)cc3)nc2c1 [Compound 8n, (S)-2-(2,3-Difluorophenoxy)-N-(2-(4-hydroxyphenyl)benzo[d]oxazol-5-yl)propanamide]",effect of guanine on MIC,[3],increased substantially in the presence of guanine in both media
"C[C@H](Oc1cccc(F)c1F)C(=O)Nc1ccc2oc(-c3ccc(C#N)cc3)nc2c1 [Compound 8p, (S)-N-(2-(4-Cyanophenyl)benzo[d]oxazol-5-yl)-2-(2,3-difluorophenoxy)propanamide]","cytotoxicity, lactate dehydrogenase release",[4],9–13%
same,LD50,[4],> 25 µM
"COc1ccc(-c2nc3cc(NC(=O)[C@H](C)Oc4ccccc4C#N)ccc3o2)cc1 [Compound 8u, (S)-2-(2-Cyanophenoxy)-N-(2-(4-methoxyphenyl)benzo[d]oxazol-5-yl)propanamide]","cytotoxicity, lactate dehydrogenase release",[4],9–13%
same,LD50,[4],> 25 µM
same,antibacterial activity over two weeks,[3]; Mtb H37Rv,retained antibacterial activity
"COc1ccc(-c2nc3cc(NC[C@H](C)Oc4cccc(Cl)c4Cl)ccc3o2)cc1 [Compound 11, (S)-N-(2-(2,3-Dichlorophenoxy)propyl)-2-(4-methoxyphenyl)benzo[d]oxazol-5-amine]",pKi,[5],< 5.30
"C[C@H](Nc1cccc(Cl)c1Cl)C(=O)Nc1ccc2oc(-c3ccc(C#N)cc3)nc2c1 [Compound 17a, (S)-N-(2-(4-Cyanophenyl)benzo[d]oxazol-5-yl)-2-((2,3-dichlorophenyl)amino)propanamide]",antibacterial activity over two weeks,[3]; Mtb H37Rv,retained antibacterial activity
"C[C@H](Nc1cccc(F)c1F)C(=O)Nc1ccc2oc(-c3ccc(C#N)cc3)nc2c1 [Compound 17b, (S)-N-(2-(4-Cyanophenyl)benzo[d]oxazol-5-yl)-2-((2,3-difluorophenyl)amino)propanamide]",stability in mouse plasma,[6],No decomposition
same,effect of ATc on antibacterial activity against the wild-type strain,[1],not affected
same,cytotoxicity,[7],less than 10%
same,"cytotoxicity, lactate dehydrogenase release",[4],9–13%
same,LD50,[4],> 25 µM
same,cytotoxicity,[8],less than 10%
same,antibacterial activity over two weeks,[3]; Mtb H37Rv,retained antibacterial activity
same,effect of guanine on MIC,[3],does not change
same,cytotoxicity,[9],less than 10%
"CCOC(=O)COc1ccc(-c2nc3cc(NC(=O)[C@H](C)Oc4cccc(Cl)c4Cl)ccc3o2)cc1 [Compound 18a, Ethyl (S)-2-(4-(5-(2-(2,3-dichlorophenoxy)propanamido)benzo[d]oxazol-2-yl)phenoxy)acetate]",effect of ATc on antibacterial activity against the wild-type strain,[1],not affected
same,cytotoxicity (in words),[4],"Only compounds 8p, 8u and 17b displayed measurable cytotoxicity"
same,antibacterial activity over two weeks,[3]; Mtb H37Rv,retained antibacterial activity
"C[C@H](Oc1cccc(Cl)c1Cl)C(=O)Nc1ccc2oc(-c3ccc(OCC(=O)O)cc3)nc2c1 [Compound 19a, (S)-2-(4-(5-(2-(2,3-Dichlorophenoxy)propanamido)benzo[d]oxazol-2-yl)phenoxy)acetic acid]",cytotoxicity (in words),[4],no cytotoxicity was observed
"C#CCOC(=O)COc1ccc(-c2nc3cc(NC(=O)[C@H](C)Oc4cccc(Cl)c4Cl)ccc3o2)cc1 [Compound 20, Prop-2-yn-1-yl (S)-2-(4-(5-(2-(2,3-dichlorophenoxy)propanamido)benzo[d]oxa-zol-2-yl)phenoxy)acetate]",cytotoxicity (in words),[4],"Only compounds 8p, 8u and 17b displayed measurable cytotoxicity"
same,antibacterial activity over two weeks,[3]; Mtb H37Rv,retained antibacterial activity
"C[C@H](Oc1cccc(Cl)c1Cl)C(=O)Nc1ccc2oc(-c3ccc(C(=O)NO)cc3)nc2c1 [Compound 21, (S)-4-(5-(2-(2,3-Dichlorophenoxy)propanamido)benzo[d]oxazol-2-yl)-N-hydroxybenzamide]",antibacterial activity over two weeks,[3]; Mtb H37Rv,retained activity
"C[C@H](Oc1cccc(Cl)c1Cl)C(=O)Nc1ccc2oc(-c3ccc(C(=O)O)cc3)nc2c1 [Compound 22, (S)-4-(5-(2-(2,3-Dichlorophenoxy)propanamido)benzo[d]oxazol-2-yl)benzoic acid]",effect of ATc on antibacterial activity against the wild-type strain,[1],not affected
same,antibacterial activity over two weeks,[3]; Mtb H37Rv,retained activity
"C[C@H](Oc1cccc(Cl)c1Cl)C(=O)Nc1ccc2oc(-c3ccc(-c4nnn[nH]4)cc3)nc2c1 [Compound 27, (S)-N-(2-(4-(1H-Tetrazol-5-yl)phenyl)benzo[d]oxazol-5-yl)-2-(2,3-dichlorophenoxy)propanamide]",pKi,[5],< 5.30
same,pKi,[10],< 5.30
"(S)-2-(2,3-Dichlorophenoxy)-N-(2-(2-methoxypyridin-4-yl)benzo[d]oxazol-5-yl)propanamide [Compound 8b]",7H9/ADC/Tween MIC +Gua,"[3]; Mtb H37Rv, 7H9/ADC/Tween medium, 200 μM guanine, 1 week",14 ± 5 (2) μM
same,7H9/ADC/Tween MIC −Gua,"[3]; Mtb H37Rv, 7H9/ADC/Tween medium, no guanine, 1 week",3.5 ± 1.2 (2) μM
same,GAST/Fe MIC +Gua,"[3]; Mtb H37Rv, GAST/Fe medium, 200 μM guanine, 1 week",6.3 ± 0.0 (2) μM
same,GAST/Fe MIC −Gua,"[3]; Mtb H37Rv, GAST/Fe medium, no guanine, 1 week",6.3 ± 0.0 (2) μM
